Experimental findings from publication doi:10.1101/2023.03.24.534094v2 (biorxiv, 2023) are described below.

Among the targets are FGFR1 (Homo sapiens, UniProt P11362); MAPKAPK2 (Homo sapiens, UniProt P49137); PIM3 (Homo sapiens, UniProt Q86V86).
What all share (test): biochemical
The target in a further assay is T1, ULK3 (Homo sapiens, UniProt Q6PHR2).
T1 sequence (Q6PHR2 1-472): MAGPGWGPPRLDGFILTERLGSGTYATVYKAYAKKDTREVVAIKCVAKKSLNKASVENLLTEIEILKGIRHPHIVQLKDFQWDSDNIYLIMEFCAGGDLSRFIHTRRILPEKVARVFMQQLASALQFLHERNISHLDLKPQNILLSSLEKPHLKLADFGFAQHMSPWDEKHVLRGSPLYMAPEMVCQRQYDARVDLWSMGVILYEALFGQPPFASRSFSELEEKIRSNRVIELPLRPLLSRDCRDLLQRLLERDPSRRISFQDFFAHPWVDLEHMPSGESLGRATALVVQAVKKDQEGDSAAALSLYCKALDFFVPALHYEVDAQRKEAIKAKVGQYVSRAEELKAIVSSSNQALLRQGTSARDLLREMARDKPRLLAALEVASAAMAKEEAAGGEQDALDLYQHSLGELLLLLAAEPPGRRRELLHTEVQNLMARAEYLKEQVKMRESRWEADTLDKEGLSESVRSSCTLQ

Another assay deals with T2, GAK (Homo sapiens, UniProt O14976).
T2 sequence (O14976 1-1311): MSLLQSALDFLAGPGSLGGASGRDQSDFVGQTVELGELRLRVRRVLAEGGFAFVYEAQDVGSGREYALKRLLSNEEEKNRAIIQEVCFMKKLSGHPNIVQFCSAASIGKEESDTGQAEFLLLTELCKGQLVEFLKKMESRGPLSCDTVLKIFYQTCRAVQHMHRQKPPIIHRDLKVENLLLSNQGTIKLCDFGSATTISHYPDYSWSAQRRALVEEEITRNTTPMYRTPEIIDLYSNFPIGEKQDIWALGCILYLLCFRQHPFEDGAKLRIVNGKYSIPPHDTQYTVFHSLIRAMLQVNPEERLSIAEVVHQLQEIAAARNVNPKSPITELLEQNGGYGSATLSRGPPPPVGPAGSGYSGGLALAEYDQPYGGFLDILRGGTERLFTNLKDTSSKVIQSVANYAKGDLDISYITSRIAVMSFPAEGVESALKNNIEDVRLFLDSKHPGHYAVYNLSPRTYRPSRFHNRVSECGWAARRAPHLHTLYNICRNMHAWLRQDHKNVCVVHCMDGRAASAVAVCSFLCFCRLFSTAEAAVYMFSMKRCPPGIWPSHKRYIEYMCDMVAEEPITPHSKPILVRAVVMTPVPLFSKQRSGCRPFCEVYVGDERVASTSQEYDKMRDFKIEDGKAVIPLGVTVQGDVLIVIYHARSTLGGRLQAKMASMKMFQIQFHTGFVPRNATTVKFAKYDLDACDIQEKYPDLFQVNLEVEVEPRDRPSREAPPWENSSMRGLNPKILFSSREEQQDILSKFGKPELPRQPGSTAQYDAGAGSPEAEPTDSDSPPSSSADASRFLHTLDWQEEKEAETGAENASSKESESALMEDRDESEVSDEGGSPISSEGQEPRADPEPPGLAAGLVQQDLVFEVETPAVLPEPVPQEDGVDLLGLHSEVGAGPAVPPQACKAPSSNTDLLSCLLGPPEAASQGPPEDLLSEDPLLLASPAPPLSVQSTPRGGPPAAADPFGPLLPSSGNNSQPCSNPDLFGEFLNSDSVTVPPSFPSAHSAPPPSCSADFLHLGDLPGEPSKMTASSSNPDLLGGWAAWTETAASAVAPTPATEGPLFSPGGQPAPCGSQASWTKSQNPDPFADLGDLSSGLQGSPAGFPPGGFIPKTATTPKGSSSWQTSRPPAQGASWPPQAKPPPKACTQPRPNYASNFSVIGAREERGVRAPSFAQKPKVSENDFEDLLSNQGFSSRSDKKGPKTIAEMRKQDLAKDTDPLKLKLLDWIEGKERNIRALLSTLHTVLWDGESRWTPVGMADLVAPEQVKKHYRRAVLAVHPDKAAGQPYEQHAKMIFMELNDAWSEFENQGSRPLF

Another assay has as its target T3, PHKG2 (Homo sapiens, UniProt P15735).
T3 sequence (P15735 1-406): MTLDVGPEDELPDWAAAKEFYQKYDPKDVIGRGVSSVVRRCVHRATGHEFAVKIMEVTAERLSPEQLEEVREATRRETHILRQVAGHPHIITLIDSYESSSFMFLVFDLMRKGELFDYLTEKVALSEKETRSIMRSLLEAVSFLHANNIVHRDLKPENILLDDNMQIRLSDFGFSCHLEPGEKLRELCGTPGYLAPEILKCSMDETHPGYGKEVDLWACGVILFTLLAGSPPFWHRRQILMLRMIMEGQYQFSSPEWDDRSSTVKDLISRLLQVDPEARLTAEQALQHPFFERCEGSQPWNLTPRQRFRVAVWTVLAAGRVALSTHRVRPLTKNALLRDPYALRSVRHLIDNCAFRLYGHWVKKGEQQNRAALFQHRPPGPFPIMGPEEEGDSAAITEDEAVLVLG

Each structure is given as a SMILES string. Like-named read-outs stand apart in the source and are kept apart here.

Sequence of MAPKAPK2 (P49137 whole entry): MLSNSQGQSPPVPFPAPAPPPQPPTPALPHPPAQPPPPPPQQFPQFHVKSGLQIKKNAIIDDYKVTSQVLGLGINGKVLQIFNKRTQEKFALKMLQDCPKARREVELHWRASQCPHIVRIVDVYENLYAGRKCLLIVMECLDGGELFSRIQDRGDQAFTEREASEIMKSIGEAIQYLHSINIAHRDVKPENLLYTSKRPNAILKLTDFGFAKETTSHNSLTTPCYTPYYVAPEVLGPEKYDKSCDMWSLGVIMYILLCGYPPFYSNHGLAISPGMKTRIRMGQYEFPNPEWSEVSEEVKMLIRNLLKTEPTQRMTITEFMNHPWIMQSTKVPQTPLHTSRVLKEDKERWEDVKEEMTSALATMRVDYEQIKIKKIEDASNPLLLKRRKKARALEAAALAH
Sequence of FGFR1 (P11362 whole entry): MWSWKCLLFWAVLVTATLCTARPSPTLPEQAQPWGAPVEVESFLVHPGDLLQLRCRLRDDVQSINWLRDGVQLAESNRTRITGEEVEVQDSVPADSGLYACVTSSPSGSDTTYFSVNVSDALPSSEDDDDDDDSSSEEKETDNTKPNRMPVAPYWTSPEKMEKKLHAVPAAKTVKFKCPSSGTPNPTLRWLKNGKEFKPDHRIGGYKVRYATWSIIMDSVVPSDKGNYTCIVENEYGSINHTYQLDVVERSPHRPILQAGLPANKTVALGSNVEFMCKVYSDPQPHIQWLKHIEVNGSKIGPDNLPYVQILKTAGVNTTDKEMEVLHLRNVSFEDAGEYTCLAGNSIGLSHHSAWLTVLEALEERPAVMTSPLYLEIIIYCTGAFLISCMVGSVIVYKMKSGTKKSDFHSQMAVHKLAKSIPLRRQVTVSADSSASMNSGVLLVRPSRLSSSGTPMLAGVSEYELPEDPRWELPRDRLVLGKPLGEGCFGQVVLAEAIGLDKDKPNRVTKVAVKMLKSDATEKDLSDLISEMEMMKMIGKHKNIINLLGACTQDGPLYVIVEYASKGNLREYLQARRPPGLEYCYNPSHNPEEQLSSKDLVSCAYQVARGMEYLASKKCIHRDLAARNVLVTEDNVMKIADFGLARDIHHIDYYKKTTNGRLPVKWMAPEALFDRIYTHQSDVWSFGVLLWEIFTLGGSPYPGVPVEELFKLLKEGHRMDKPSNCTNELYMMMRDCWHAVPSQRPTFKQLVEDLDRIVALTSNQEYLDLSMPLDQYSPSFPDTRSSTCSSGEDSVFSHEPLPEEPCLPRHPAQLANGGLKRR

As to `CNc1ncc2cc(-c3cc(Cl)ccc3Cl)c(=O)n(CCCCN)c2n1` [compound 8, 8-(4-Aminobutyl)-6-(2,5-dichlorophenyl)-2-(methylamino)pyrido[2,3-d]pyrimidin-7(8H)-one], the ΔTm at 10 µM on ULK3 (read-out: dTm 8) came to 1 °C; on GAK (read-out: dTm 8), 3.7 °C; on PHKG2 (read-out: dTm 8), 1.5 °C; on FGFR1 (read-out: dTm 8), 3.3 °C; at MAPKAPK2 (read-out: dTm 8), 0 °C; on PIM3 (read-out: dTm 8), 1 °C.

Take `CNc1ncc2cc(-c3cc(Cl)ccc3Br)c(=O)n(CCCCN)c2n1` [compound 10, 8-(4-Aminobutyl)-6-(2-bromo-5-chlorophenyl)-2-(methylamino)pyrido[2,3-d]pyrimidin-7(8H)-one]: the ΔTm at 10 µM stood at 1.1 °C at ULK3 (read-out: dTm 10); 3.3 °C at GAK (read-out: dTm 10); 1.3 °C at PHKG2 (read-out: dTm 10); 2.9 °C at FGFR1 (read-out: dTm 10); 0 °C at MAPKAPK2 (read-out: dTm 10); 0.8 °C at PIM3 (read-out: dTm 10).

In the case of `CNc1ncc2cc(-c3cc(Br)ccc3Br)c(=O)n(CCCCN)c2n1` [compound 11, 8-(4-Aminobutyl)-6-(2,5-dibromophenyl)-2-(methylamino)pyrido[2,3-d]pyrimidin-7(8H)-one], the ΔTm at 10 µM on ULK3 (read-out: dTm 11) was 1.3 °C; at GAK (read-out: dTm 11), 3.3 °C; at PHKG2 (read-out: dTm 11), 0.6 °C; at FGFR1 (read-out: dTm 11) it was 3 °C; on MAPKAPK2 (read-out: dTm 11), 0 °C; at PIM3 (read-out: dTm 11), 0.9 °C.

`CNc1ncc2cc(-c3cc(C(F)(F)F)ccc3Cl)c(=O)n(CCCCN)c2n1` [compound 9, 8-(4-Aminobutyl)-6-(2-chloro-5-(trifluoromethyl)phenyl)-2-(methylamino)pyrido[2,3-d]pyrimidin-7(8H)-one]: the ΔTm at 10 µM at ULK3 (read-out: dTm 9) is 0.6 °C; at GAK (read-out: dTm 9), 1 °C; at PHKG2 (read-out: dTm 9) it was 0.5 °C; at FGFR1 (read-out: dTm 9), 1.2 °C; on MAPKAPK2 (read-out: dTm 9), -0.1 °C; at PIM3 (read-out: dTm 9) it was 0.4 °C.

For `CNc1ncc2cc(-c3cc(F)c(-c4cccc(C)n4)cc3F)c(=O)n(CCCCN)c2n1` [compound 12, 8-(4-Aminobutyl)-6-(2,5-difluoro-4-(6-methylpyridin-2-yl)phenyl)-2-(methylamino)pyrido[2,3-d]pyrimidin-7(8H)-one], the ΔTm at 10 µM at ULK3 (read-out: dTm 12) is 6.7 °C; on GAK (read-out: dTm 12), 7.6 °C; on PHKG2 (read-out: dTm 12) it was 1.5 °C; at FGFR1 (read-out: dTm 12), 0.6 °C; at MAPKAPK2 (read-out: dTm 12), -0.3 °C; at PIM3 (read-out: dTm 12), -1.2 °C.
